In the CheMixHub viscosity set:

Assay: xn = mol fraction of the nth substance listed

CN1CCC[C@H]1c1cccnc1 + CCC(C)=O
viscosity [mPa·s], 101 kPa
Details | x1 = 0.1253 | x1 = 0.2463 | x1 = 0.3642 | x1 = 0.4878 | x1 = 0.6133 | x1 = 0.7374 | x1 = 0.883
298.15 K | 0.5454 | 0.7187 | 0.9572 | 1.246 | 1.646 | 2.2 | 3.069
323.15 K | 0.4075 | 0.5104 | 0.6647 | 0.8283 | 1.041 | 1.316 | 1.767

O=S(=O)([O-])[O-].[NH4+].[NH4+] + O
viscosity [mPa·s], 101 kPa
Details | 298.15 K | 308.15 K | 318.15 K
x1 = 0.008901 | 0.9796 | 0.8523 | 0.7339
x1 = 0.01765 | 1.709 | 1.427 | 1.231

CCOC(=O)CCC(=O)OCC + CC(C)CO
Details | viscosity [mPa·s]
303.15 K, 100 kPa, x1 = 0.0999 | 2.135

CCOC(=O)CCC(=O)OCC + CCCCO
100 kPa
Details | viscosity [mPa·s]
303.15 K, x1 = 0.1 | 1.845
308.15 K, x1 = 0.6998 | 1.635
313.15 K, x1 = 0.3 | 1.355
318.15 K, x1 = 0.2001 | 1.245
323.15 K, x1 = 0.8997 | 1.435

CCCCCCCCCCC + CCCCCCCC
298.15 K, 101.33 kPa
Details | viscosity [mPa·s]
x2 = 0.1011 | 1.012
x2 = 0.2077 | 0.9375
x2 = 0.3112 | 0.8621
x2 = 0.406 | 0.8112
x2 = 0.5073 | 0.7521
x2 = 0.6089 | 0.7019
x2 = 0.7063 | 0.645
x2 = 0.8047 | 0.6014
x2 = 0.9039 | 0.5503

O=c1cc[nH]c(=O)[nH]1 + O
viscosity [mPa·s]
Details | 293.15 K | 298.15 K | 303.15 K | 308.15 K | 318.15 K
101 kPa, x1 = 9e-05 | – | 0.879 | – | 0.7172 | 0.5784
101 kPa, x1 = 0.00018 | – | 0.9132 | – | 0.7313 | 0.5871
101 kPa, x1 = 0.00027 | – | 0.9292 | – | 0.7541 | 0.6092
101 kPa, x1 = 0.00036 | – | 0.941 | – | 0.7821 | 0.6272
101.3 kPa, x1 = 0.000113 | 1.004 | – | 0.801 | – | –
101.3 kPa, x1 = 0.000164 | – | 0.892 | – | 0.721 | –
101.3 kPa, x1 = 0.000177 | 1.005 | 0.894 | 0.802 | – | –
101.3 kPa, x1 = 0.0002602 | – | 0.894 | – | – | 0.599
101.3 kPa, x1 = 0.0002747 | 1.006 | – | 0.803 | – | –
101.3 kPa, x1 = 0.0003447 | 1.007 | 0.896 | 0.804 | – | –
101.3 kPa, x1 = 0.0004315 | – | 0.896 | – | – | 0.601
101.3 kPa, x1 = 0.0004415 | – | 0.896 | – | 0.725 | 0.601
101.3 kPa, x1 = 0.0004586 | 1.008 | 0.897 | 0.805 | – | –
101.3 kPa, x1 = 0.0004739 | – | 0.897 | – | 0.725 | 0.601
101.3 kPa, x1 = 0.0005438 | 1.009 | – | 0.806 | – | –

CCOC(=O)CCC(=O)OCC + CCCC(=O)OCC
Details | viscosity [mPa·s]
303.15 K, 100 kPa, x2 = 0.3003 | 1.535

OCCCl + Cc1ccccc1N
viscosity [mPa·s], 100 kPa
Details | x2 = 0.1141 | x2 = 0.2148 | x2 = 0.3201 | x2 = 0.4123 | x2 = 0.5121 | x2 = 0.6225 | x2 = 0.7112 | x2 = 0.8184 | x2 = 0.9017
303.15 K | 2.67 | 2.744 | 2.82 | 2.884 | 2.953 | 3.026 | 3.084 | 3.151 | 3.202
308.15 K | 2.312 | 2.378 | 2.445 | 2.502 | 2.562 | 2.626 | 2.676 | 2.734 | 2.777
313.15 K | 1.963 | 2.031 | 2.099 | 2.157 | 2.219 | 2.285 | 2.337 | 2.396 | 2.44
318.15 K | 1.645 | 1.711 | 1.777 | 1.834 | 1.893 | 1.958 | 2.008 | 2.067 | 2.108

CC(C)C#N + Cc1ccc(C)cc1
viscosity [mPa·s], 101 kPa
Details | x2 = 0.1003 | x2 = 0.2009 | x2 = 0.3014 | x2 = 0.4041 | x2 = 0.4978 | x2 = 0.6013 | x2 = 0.7001 | x2 = 0.8003 | x2 = 0.8998
303.15 K | 0.474 | 0.482 | 0.484 | 0.498 | 0.505 | 0.519 | 0.531 | 0.55 | 0.558
308.15 K | 0.444 | 0.453 | 0.453 | 0.461 | 0.473 | 0.485 | 0.495 | 0.507 | 0.519

CC(C)C#N + Clc1ccccc1Cl
viscosity [mPa·s], 101 kPa
Details | x2 = 0.1007 | x2 = 0.2025 | x2 = 0.2999 | x2 = 0.4004 | x2 = 0.4997 | x2 = 0.599 | x2 = 0.6994 | x2 = 0.7997 | x2 = 0.8989
303.15 K | 0.526 | 0.594 | 0.659 | 0.73 | 0.793 | 0.874 | 0.947 | 1.03 | 1.118
308.15 K | 0.489 | 0.551 | 0.608 | 0.667 | 0.732 | 0.798 | 0.87 | 0.945 | 1.02
